For assay [1], the system named is EGFR mutant L858R Ba/F3 cells. The assay is described as follows: Ba/F3 cell proliferation model (Cell Titer Glo), EGFR L858R. It counts as cell-based, murine. The following applies: Mus musculus, BaF3; single agent, 72 hours; read-out: Cell IC50 BaF3 EGFR L858R. The text has this:
Example 26: Ba/F3 Cell Proliferation Models
The EGFR mutant L858R and L858R/T790M Ba/F3 cells have been previously described (Zhou, W., et al. Nature 462, 2009, 1070-1074). All cell lines were maintained in RPM 1640 (Cellgro; Mediatech Inc., Herndon. CA) supplemented with 10% FBS, 100 units/mL penicillin, 100 units/mL streptomycin. The EGFR I941R mutation was introduced via site directed mutagenesis using the Quick Change Site-Directed Mutagenesis kit (Stratagene; La Jolla, CA) according to the manufacturer's instructions. All constructs were confirmed by DNA sequencing. The constructs were shuttled into the retroviral vector JP1540 using the Cre-recombination system (Agilent Technologies, Santa Clara, CA). Ba/F3 cells were then infected with retrovirus per standard protocols, as described previously (Zhou, et al, Nature 2009). Stable clones were obtained by selection in puromycin (2 μg/ml).
Growth and inhibition of growth was assessed by the Cell Titer Glo® assay (Promega, Madison, WI) and was performed according to the manufacturer's instructions. The Cell Titer Glo® assay is a luminescence-based method used to determine the number of viable cells based on quantitation of the ATP present, which is directly proportional to the amount of metabolically active cells present. Ba/F3 cells of different EGFR genotypes were exposed to compounds as a single agent or in combination with 1 μg/mL cetuximab for 72 hours and the number of cells used per experiment was determined empirically as has been previously established (Zhou, et al., Nature 2009). All experimental points were set up in triplicates in 384-well plates and all experiments were repeated at least three times. […] The curves were fitted using a non-linear regression model with a sigmoidal dose response.
For orientation: ATP-based viability assays read luminescence as a measure of living cells.

Assay [2] deals with EGFR mutant L858R/T790M Ba/F3 cells. The assay is described as follows: Ba/F3 cell proliferation model (Cell Titer Glo), EGFR L858R/T790M. It counts as cell-based, murine. The conditions noted are these: 72 hours. The method in brief:
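Retrovirally transduced Ba/F3 cells exposed 72 h to compound alone or with 1 μg/mL cetuximab, triplicate points, repeated at least three times. Viability by Cell Titer Glo luminescence (ATP); curves fitted by non-linear sigmoidal dose-response regression.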

A further assay has as its target EGFR L858R (Homo sapiens (Human), UniProt P00533, L858R). The assay is described as follows: HTRF-based EGFR biochemical assay (L858R). The following applies: 100 μM ATP, enzyme 0.1 nM. The method in brief:
(§1)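 Mutant EGFR (L858R 0.1 nM, L858R/T790M 0.02 nM) preincubated 30 min with compounds at room temperature in HEPES pH 7.0 buffer with Mg2+/Mn2+, then reacted 20 min with 1 μM biotinylated tyrosine kinase peptide and 100 μM ATP. Phosphorylation read by HTRF (Eu-cryptate anti-phosphotyrosine/streptavidin-XL665, 665/620 nm) after EDTA quench.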
In general terms: TR-FRET usually uses a lanthanide donor and a delayed reading to cut background.

For a further assay, the target named is EGFR L858R/T790M (Homo sapiens (Human), UniProt P00533, L858R/T790M). The assay is described as follows: HTRF-based EGFR biochemical assay (L858R/T790M). The following applies: 100 μM ATP, enzyme 0.02 nM. The method in brief:
as §1

[3] abbreviates: Mus musculus, BaF3, single agent, read-out: Cell IC50 BaF3 EGFR L858R/T790M.
Setting [4] is: in combination with 1 μg/mL cetuximab, read-out: Cell IC50 BaF3 EGFR L858R/T790M (+cetux.).

The structures appear in SMILES notation. Where a name gives a salt, the structure may show the parent alone. Read-outs that look alike come from different tables or passages of the source.

Chain of EGFR L858R (P00533 25-1210 L858R): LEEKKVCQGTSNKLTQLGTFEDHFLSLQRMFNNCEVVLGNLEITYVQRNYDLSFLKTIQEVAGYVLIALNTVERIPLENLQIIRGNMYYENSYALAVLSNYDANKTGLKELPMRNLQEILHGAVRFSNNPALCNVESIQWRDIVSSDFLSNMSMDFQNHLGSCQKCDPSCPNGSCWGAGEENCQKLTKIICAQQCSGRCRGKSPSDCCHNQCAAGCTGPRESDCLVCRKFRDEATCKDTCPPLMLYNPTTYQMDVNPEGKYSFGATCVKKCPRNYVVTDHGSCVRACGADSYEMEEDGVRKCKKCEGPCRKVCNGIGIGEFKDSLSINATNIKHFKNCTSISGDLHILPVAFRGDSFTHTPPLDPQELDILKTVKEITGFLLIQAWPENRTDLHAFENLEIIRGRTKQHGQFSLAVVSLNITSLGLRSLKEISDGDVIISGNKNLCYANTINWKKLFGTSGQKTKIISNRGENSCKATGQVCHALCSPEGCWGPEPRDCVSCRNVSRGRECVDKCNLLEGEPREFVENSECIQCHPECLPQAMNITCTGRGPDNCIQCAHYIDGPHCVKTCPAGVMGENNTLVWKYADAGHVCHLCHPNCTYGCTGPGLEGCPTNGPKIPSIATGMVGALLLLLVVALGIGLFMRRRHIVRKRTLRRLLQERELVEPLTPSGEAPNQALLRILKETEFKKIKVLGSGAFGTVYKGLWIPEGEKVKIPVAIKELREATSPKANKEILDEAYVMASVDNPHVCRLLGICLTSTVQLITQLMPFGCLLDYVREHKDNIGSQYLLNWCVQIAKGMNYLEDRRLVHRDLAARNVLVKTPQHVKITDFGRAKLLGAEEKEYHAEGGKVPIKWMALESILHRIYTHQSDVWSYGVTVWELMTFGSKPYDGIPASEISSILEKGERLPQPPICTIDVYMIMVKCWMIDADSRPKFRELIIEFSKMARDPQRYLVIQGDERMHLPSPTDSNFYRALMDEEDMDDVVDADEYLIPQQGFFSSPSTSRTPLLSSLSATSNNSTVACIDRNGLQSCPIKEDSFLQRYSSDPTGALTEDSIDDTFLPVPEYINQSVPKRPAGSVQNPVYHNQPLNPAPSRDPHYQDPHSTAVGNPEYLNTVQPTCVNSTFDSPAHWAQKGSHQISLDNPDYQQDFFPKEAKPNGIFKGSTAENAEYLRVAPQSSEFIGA
Chain of EGFR L858R/T790M (P00533 25-1210 T790M/L858R): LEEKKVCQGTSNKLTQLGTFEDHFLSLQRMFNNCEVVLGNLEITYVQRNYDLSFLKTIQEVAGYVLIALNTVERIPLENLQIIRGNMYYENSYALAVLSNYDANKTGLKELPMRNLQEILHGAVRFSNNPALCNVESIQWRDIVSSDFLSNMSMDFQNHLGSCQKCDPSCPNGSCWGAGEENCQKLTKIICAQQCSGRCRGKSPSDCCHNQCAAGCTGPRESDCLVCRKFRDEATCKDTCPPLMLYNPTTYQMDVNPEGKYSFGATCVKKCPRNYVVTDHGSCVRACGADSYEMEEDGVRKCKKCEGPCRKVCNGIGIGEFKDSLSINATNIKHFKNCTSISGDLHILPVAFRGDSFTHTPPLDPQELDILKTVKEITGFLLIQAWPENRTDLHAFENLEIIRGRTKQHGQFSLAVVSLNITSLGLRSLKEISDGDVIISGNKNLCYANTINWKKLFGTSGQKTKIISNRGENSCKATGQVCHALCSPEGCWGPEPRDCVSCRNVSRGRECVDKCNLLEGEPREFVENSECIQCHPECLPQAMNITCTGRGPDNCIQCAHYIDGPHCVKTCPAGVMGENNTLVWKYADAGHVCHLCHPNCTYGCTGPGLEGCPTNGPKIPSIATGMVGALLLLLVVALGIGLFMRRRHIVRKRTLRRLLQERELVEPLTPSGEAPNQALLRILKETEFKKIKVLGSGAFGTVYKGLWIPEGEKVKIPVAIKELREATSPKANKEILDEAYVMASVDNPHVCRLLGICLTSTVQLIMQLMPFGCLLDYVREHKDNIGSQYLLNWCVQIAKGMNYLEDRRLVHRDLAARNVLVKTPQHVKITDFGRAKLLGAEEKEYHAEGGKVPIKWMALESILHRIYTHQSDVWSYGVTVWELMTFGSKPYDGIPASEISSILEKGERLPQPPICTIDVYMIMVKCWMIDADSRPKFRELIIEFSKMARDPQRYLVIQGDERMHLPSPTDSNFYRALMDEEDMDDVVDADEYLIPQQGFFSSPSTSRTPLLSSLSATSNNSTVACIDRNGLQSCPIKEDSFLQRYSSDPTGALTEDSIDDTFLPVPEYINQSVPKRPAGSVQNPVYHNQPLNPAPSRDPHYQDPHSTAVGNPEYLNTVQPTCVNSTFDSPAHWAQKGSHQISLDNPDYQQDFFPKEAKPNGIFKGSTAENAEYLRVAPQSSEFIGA

For `CCc1c(-c2ccc(C3CCN(C)CC3)cc2)ccc2ncn(C(c3nc4ccccc4[nH]3)c3cc(F)ccc3O)c(=O)c12` (stereo not drawn) [Compound 074, 3-[1H-benzimidazol-2-yl-(5-fluoro-2-hydroxy-phenyl)methyl]-5-ethyl-6-[4-(1-methyl-4-piperidyl)phenyl]-quinazolin-4-one; dihydrochloride], the IC50 in assay [1] was 0.11 µM; in assay [2] (setting [3]) it was 0.12 µM; in assay [2] (setting [4]) it was 0.02 µM; at EGFR L858R, 0.002 µM; on EGFR L858R/T790M it was 0.001 µM.
For `CN1CCC(c2ccc(-c3ccc4ncn(C(c5nc6ccccc6[nH]5)c5cc(F)ccc5O)c(=O)c4c3Cl)cc2)CC1` (stereo not drawn) [Compound 075, 3-[1H-benzimidazol-2-yl-(5-fluoro-2-hydroxy-phenyl)methyl]-5-chloro-6-[4-(1-methyl-4-piperidy)phenyl]-quinazolin-4-one; dihydrochloride], the IC50 in assay [1] stood at 0.1 µM; in assay [2] (setting [3]) it was 0.09 µM; in assay [2] (setting [4]), 0.02 µM; against EGFR L858R, 0.001 µM; against EGFR L858R/T790M, 0.0007 µM.
As for `CN1CCC(c2ccc(-c3ccc4ncn(C(c5nc6ccccc6[nH]5)c5cc(F)ccc5O)c(=O)c4c3C(F)(F)F)cc2)CC1` (stereo not drawn) [Compound 076, 3-[1H-benzimidazol-2-yl-(5-fluoro-2-hydroxy-phenyl)methyl]-6-[4-(1-methyl-4-piperidyl)phenyl]-5-(trifluoromethyl)quinazolin-4-one; dihydrochloride], the IC50 stood at 0.09 µM in assay [1]; 0.14 µM in assay [2] (setting [3]); 0.03 µM in assay [2] (setting [4]); 0.002 µM against EGFR L858R; 0.002 µM on EGFR L858R/T790M.
As for `COc1c(-c2ccc(C3CCN(C)CC3)cc2)ccc2ncn(C(c3nc4ccccc4[nH]3)c3cc(F)ccc3O)c(=O)c12` (stereo not drawn) [Compound 077, 3-[1H-benzimidazol-2-yl-(5-fluoro-2-hydroxy-phenyl)methyl]-5-methoxy-6-[4-(1-methyl-4-piperidyl)phenyl]quinazolin-4-one;dihydrochloride], the IC50 in assay [1] is 0.91 µM; in assay [2] (setting [3]) it was 0.45 µM; in assay [2] (setting [4]), 0.05 µM; at EGFR L858R, 0.002 µM; on EGFR L858R/T790M, 0.002 µM.
`CN1CCC(c2ccc(-c3ccc4c(c3)C(=S)N(C(c3nc5ccccc5[nH]3)c3cc(F)ccc3O)C4)cc2)CC1` (stereo not drawn) [Compound 078, 2-[1H-benzimidazol-2-yl-(5-fluoro-2-hydroxy-phenyl)methyl]-6-[4-(1-methyl-4-piperidyl)phenyl]isoindoline-1-thione;dihydrochloride]: the IC50 stood at 0.69 µM in assay [1]; 0.31 µM in assay [2] (setting [3]); 0.02 µM in assay [2] (setting [4]); 0.003 µM against EGFR L858R; 0.001 µM against EGFR L858R/T790M.
For `CN1CCC2(c3ccc(-c4ccc5c(c4)C(=O)N(C(c4nc6ccccc6[nH]4)c4cc(F)ccc4O)C5)cc3)CC2C1` (stereo not drawn) [Compound 079, 2-[1H-benzimidazol-2-yl-(5-fluoro-2-hydroxy-phenyl)methyl]-6-[4-(3-methyl-3-azabicyclo[4.1.0]heptan-6-yl)phenyl]isoindolin-1-one; dihydrochloride], in that order: 0.83 µM, 0.19 µM, 0.007 µM, 0.003 µM and 0.0008 µM.
For `CN1CCC(c2ccc(-c3ccc4c(c3F)C(=O)N(C(c3nc5ccccc5[nH]3)c3cc(F)ccc3O)C4)cc2F)CC1` (stereo not drawn) [Compound 080, 2-[1H-benzimidazol-2-yl-(5-fluoro-2-hydroxy-phenyl)methyl]-7-fluoro-6-[3-fluoro-4-(1-methyl-4-piperidyl)phenyl]isoindolin-1-one; dihydrochloride], in that order: 0.5 µM, 0.21 µM, 0.01 µM, 0.003 µM and 0.0006 µM.
`Cc1c(-c2ccc(C3CCN(C)CC3)cc2)ccc2c1C(=O)N(C(c1nc3ccccc3[nH]1)c1cc(F)ccc1O)C2` (stereo not drawn) [Compound 082, 2-[1H-benzimidazol-2-yl-(5-fluoro-2-hydroxy-phenyl)methyl]-7-methyl-6-[4-(1-methyl-4-piperidyl)phenyl]isoindolin-1-one; dihydrochloride]: the IC50 in assay [1] came to 0.67 µM; in assay [2] (setting [3]), 0.22 µM; in assay [2] (setting [4]), 0.02 µM; on EGFR L858R, 0.003 µM; against EGFR L858R/T790M it was 0.0006 µM.
Regarding `Cc1c[nH]c(C(c2cc(F)ccc2O)N2Cc3ccc(-c4ccc(C5CCN(C)CC5)cc4)cc3C2=O)n1` (stereo not drawn) [Compound 085, 2-[(5-Fluoro-2-hydroxy-phenyl)-(4-methyl-1H-imidazol-2-yl)methyl]-6-[4-(1-methyl-4-piperidyl)phenyl]isoindolin-1-one], the IC50 in assay [1] was 0.78 µM; in assay [2] (setting [3]), 1.29 µM; in assay [2] (setting [4]), 0.05 µM; against EGFR L858R, 0.013 µM; against EGFR L858R/T790M, 0.028 µM.
Take `Cc1c[nH]c(C(c2cccc(F)c2)N2Cc3ccc(-c4ccc(C5CCN(C)CC5)cc4)cc3C2=O)n1` (stereo not drawn) [Compound 086, 2-[(3-fluorophenyl)-(4-methyl-1H-imidazol-2-yl)methyl]-6-[4-(1-methyl-4-piperidyl)phenyl]isoindolin-1-one]: the IC50 in assay [1] is 3.64 µM; in assay [2] (setting [3]), 3.22 µM; at EGFR L858R, more than 0.1 µM; against EGFR L858R/T790M, 0.025 µM.
On the same counts, the results for `Cc1nc(C(c2cc(F)ccc2O)N2Cc3ccc(-c4ccc(C5CCN(C)CC5)cc4)cc3C2=O)[nH]c1C` (stereo not drawn) [Compound 087, 2-[(4,5-dimethyl-1H-imidazol-2-yl)-(5-fluoro-2-hydroxy-phenyl)methyl]-6-[4-(1-methyl-4-piperidyl)phenyl]isoindolin-1-one] are 1.37 µM, 1.32 µM, more than 0.1 µM and 0.025 µM.
In the case of `CN1CCC(Oc2ccc(-c3ccc4c(c3)C(=O)N(C(c3nc5ccccc5[nH]3)c3cc(F)ccc3O)C4)cc2)CC1` (stereo not drawn) [Compound 090, 2-[1H-benzimidazol-2-yl-(5-fluoro-2-hydroxy-phenyl)methyl]-6-[4-[(1-methyl-4-piperidyl)oxy]phenyl]isoindolin-1-one], the IC50 in assay [1] was determined as 1.43 µM; in assay [2] (setting [3]), 0.86 µM; in assay [2] (setting [4]), 0.02 µM; on EGFR L858R it was 0.011 µM; against EGFR L858R/T790M it was 0.008 µM.
On the same counts, the results for `O=C1c2cc(-c3ccc(OC4CNC4)cc3)ccc2CN1C(c1nc2ccccc2[nH]1)c1cc(F)ccc1O` (stereo not drawn) [Compound 091, 6-[4-(azetidin-3-yloxy)phenyl]-2-[1H-benzimidazol-2-yl-(5-fluoro-2-hydroxy-phenyl)methyl]isoindolin-1-one; dihydrochloride] are 1.78 µM, 1.05 µM, 0.12 µM, 0.012 µM and 0.006 µM.
As to `CN1CCC(c2ccc(-c3ccc4cn(C(c5nc6ccccc6[nH]5)c5cc(F)ccc5O)nc4c3Cl)cc2)CC1` (stereo not drawn) [Compound 092, 2-[1H-benzimidazol-2-yl-[7-chloro-6-[4-(1-methyl-4-piperidyl)phenyl]-indazol-2-yl]methyl]-4-fluoro-phenol; dihydrochloride], the IC50 in assay [1] is 0.82 µM; in assay [2] (setting [3]), 0.1 µM; in assay [2] (setting [4]) it was 0.01 µM; at EGFR L858R, 0.004 µM; against EGFR L858R/T790M, 0.001 µM.
As for `CN1CCC(c2ccc(-c3ccc4cn(C(c5nc6ccccc6[nH]5)c5cc(F)ccc5O)nc4c3)cc2)CC1` (stereo not drawn) [Compound 100, 2-((1H-Benzo[d]imidazol-2-yl)(6-(4-(1-methylpiperidin-4-yl)phenyl)-2H-indazol-2-yl)methyl)-4-fluorophenol; trifluoroacetate], the IC50 in assay [1] turned out to be 2 µM; in assay [2] (setting [3]), 0.53 µM; on EGFR L858R, 0.014 µM; against EGFR L858R/T790M, 0.004 µM.

For the origin of these results see US12391671B2, “Allosteric EGFR inhibitors and methods of use thereof” (Dana-Farber Cancer Institute, Inc., priority 2019, dated 2025).
